The supplement of paper PMC10331698
± gives the standard deviation of the averaged measurements.

Columns and labels:
Test in all cases: level (log10 ratio to DMSO vehicle control); higher = higher biomarker level / cell amount than vehicle control
Details in all cases: in DMSO
[1] = compound: FC(F)(F)COC(OCC(F)(F)F)OCC(F)(F)F [tris(Trifluoroethoxy)methane]
Experimental: (§1)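 BioMAP Diversity Plus panel of 12 human primary cell co-culture systems (3C, 4H, LPS, SAg, BT, BF4T, BE3C, CASM3C, HDF3CGF, KF3CT, MyoF, Mphg). Compounds were added 1 h before stimulation and left for 24 h (MyoF 48 h; BT 72 h for soluble read-outs or 6 d for IgG). Biomarkers were read by ELISA, cytotoxicity by SRB, PBMC viability and proliferation by Alamar Blue. Each well value was divided by the mean of 8 DMSO control wells on the same plate and log10 transformed; duplicate blinded samples were tested at 4 concentrations.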

[2] = compound: FC(F)(F)C(F)(F)C(F)(F)C(F)(F)CCI [1H,1H,2H,2H-Perfluorohexyl iodide]
Experimental: as §1

[3] = compound: O=C(O)C(F)(F)C(F)(F)C(F)(F)C(F)(F)C(F)(F)C(F)(F)C(F)(F)F [Ammonium perfluorooctanoate]
Experimental: as §1

[4] = compound: Cc1ccc(S(=O)(=O)OCC(F)(F)C(F)(F)C(F)(F)C(F)(F)C(F)(F)C(F)F)cc1 [1H,1H,7H-Perfluoroheptyl 4-methylbenzenesulfonate]
Experimental: as §1

[5] = compound: C=C(C)C(=O)OCC(F)(F)C(F)(F)C(F)(F)F [2,2,3,3,4,4,4-Heptafluorobutyl methacrylate]
Experimental: as §1

[6] = compound: O=S(=O)(OCC(F)(F)F)C(F)(F)C(F)(F)C(F)(F)C(F)(F)F [2,2,2-Trifluoroethyl perfluorobutanesulfonate]
Experimental: as §1

[7] = compound: OC(C(F)(F)F)(C(F)(F)F)C(O)(C(F)(F)F)C(F)(F)F [Perfluoropinacol]
Experimental: as §1

Test System | level (log10) ([1]; 6700 nM) | level (log10) ([1]; 20000 nM) | level (log10) ([1]; 60000 nM) | level (log10) ([2]; 6700 nM) | level (log10) ([2]; 20000 nM) | level (log10) ([2]; 60000 nM) | level (log10) ([3]; 6700 nM) | level (log10) ([3]; 20000 nM) | level (log10) ([3]; 60000 nM) | level (log10) ([4]; 6700 nM) | level (log10) ([4]; 20000 nM) | level (log10) ([4]; 60000 nM) | level (log10) ([5]; 6700 nM) | level (log10) ([5]; 20000 nM) | level (log10) ([5]; 60000 nM) | level (log10) ([6]; 6700 nM) | level (log10) ([6]; 20000 nM) | level (log10) ([6]; 60000 nM) | level (log10) ([7]; 6700 nM) | level (log10) ([7]; 20000 nM)
LPS:CD62E/E-Selectin | -0.009 ± 0.033 | -0.005 | -0.009 ± 0.0071 | 0.0035 ± 0.022 | -0.0105 ± 0.018 | -0.0095 ± 0.012 | -0.0015 ± 0.0092 | -0.012 ± 0.0028 | 0.0025 ± 0.013 | 0.001 ± 0.0057 | 0.012 ± 0.027 | 0.0375 ± 0.0078 | 0.001 ± 0.0071 | 0.0075 ± 0.026 | -0.0015 ± 0.0035 | 0.0025 ± 0.019 | -0.004 ± 0.02 | -0.0795 ± 0.043 | 0.003 ± 0.0085 | -0.027 ± 0.028
3C:HLA-DR | 0.014 ± 0.013 | 0.0065 ± 0.012 | 0.0205 ± 0.0035 | -0.0005 ± 0.029 | -0.035 ± 0.04 | -0.0305 ± 0.04 | -0.005 ± 0.0042 | 0 ± 0.0014 | 0.004 ± 0.016 | 0.0215 ± 0.016 | 0.0165 ± 0.0021 | 0.0085 ± 0.022 | -0.01 ± 0.013 | -0.0055 ± 0.0078 | 0.001 ± 0.0042 | -0.01 ± 0.011 | -0.0135 ± 0.0092 | -0.032 ± 0.0014 | -0.0405 ± 0.0035 | -0.132 ± 0.028
LPS:CD142/Tissue Factor | -0.013 ± 0.011 | -0.02 ± 0.027 | -0.0085 ± 0.06 | 0.0165 ± 0.0035 | 0.0275 ± 0.018 | 0.055 ± 0.051 | 0.016 ± 0.03 | 0.0045 ± 0.016 | 0.0105 ± 0.015 | -0.0355 ± 0.11 | -0.022 ± 0.065 | 0.161 ± 0.039 | -0.0225 ± 0.026 | -0.013 ± 0.025 | 0.02 ± 0.0057 | 0.0325 ± 0.12 | -0.069 ± 0.13 | -0.153 ± 0.13 | -0.0795 ± 0.0035 | -0.038 ± 0.02
BT:PBMC Cytotoxicity | 0.002 ± 0.033 | 0.005 ± 0.035 | 0.006 ± 0.0057 | -0.024 ± 0.0014 | -0.042 ± 0.0099 | -0.0045 ± 0.029 | -0.0115 ± 0.047 | -0.009 ± 0.033 | 0.0565 ± 0.015 | -0.017 ± 0.0057 | 0.008 ± 0.0014 | -0.017 | 0.0065 ± 0.035 | 0.005 ± 0.03 | 0.004 ± 0.055 | 0.0225 ± 0.022 | 0.0235 ± 0.056 | 0.053 ± 0.062 | 0.011 ± 0.017 | -0.0095 ± 0.023
SAg:Proliferation | -0.012 ± 0.0014 | 0.013 ± 0.04 | 0.007 ± 0.013 | -0.0205 ± 0.0078 | -0.043 ± 0.013 | -0.155 ± 0.014 | 0.002 ± 0.0085 | 0.0175 ± 0.029 | 0.044 ± 0.044 | -0.0085 ± 0.07 | -0.011 ± 0.0085 | -0.0335 ± 0.086 | -0.042 ± 0.069 | -0.004 ± 0.03 | -0.0045 ± 0.033 | -0.0055 ± 0.032 | -0.053 ± 0.023 | -0.048 ± 0.018 | 0.0035 ± 0.093 | -0.163 ± 0.021
LPS:sPGE2 | -0.0105 ± 0.022 | -0.0085 ± 0.0035 | 0.0185 ± 0.013 | -0.004 ± 0.014 | -0.002 ± 0.017 | 0.0245 ± 0.03 | -0.0185 ± 0.022 | -0.067 ± 0.018 | -0.172 ± 0.044 | -0.0185 ± 0.03 | -0.023 ± 0.024 | 0.003 ± 0.058 | 0.05 ± 0.042 | -0.009 ± 0.024 | 0.076 ± 0.014 | 0.049 ± 0.02 | -0.006 ± 0.038 | -0.024 ± 0.018 | 0.086 ± 0.038 | 0.182 ± 0.015
BF4T:uPA | 0.001 ± 0.0099 | -0.017 ± 0.011 | -0.0095 ± 0.00071 | -0.0205 ± 0.0021 | -0.0145 ± 0.013 | 0.0115 ± 0.035 | 0.014 ± 0.0028 | 0.0175 ± 0.0021 | 0.042 ± 0.013 | -0.0185 ± 0.00071 | -0.01 ± 0.0042 | -0.0165 ± 0.0064 | -0.01 | -0.017 ± 0.017 | -0.007 ± 0.0085 | -0.0085 ± 0.018 | -0.008 ± 0.035 | -0.015 ± 0.023 | -0.0305 ± 0.019 | -0.0365 ± 0.0064
LPS:CD69 | -0.0085 ± 0.015 | 0.012 ± 0.017 | 0.0295 ± 0.018 | 0 ± 0.013 | -0.008 ± 0.0071 | 0.0085 ± 0.011 | -0.0165 ± 0.012 | -0.045 ± 0.0085 | -0.142 ± 0.031 | -0.026 ± 0.048 | -0.0665 ± 0.088 | -0.055 | -0.019 ± 0.013 | -0.024 ± 0.028 | -0.024 ± 0.011 | 0.0015 ± 0.15 | 0.001 ± 0.088 | -0.073 ± 0.16 | -0.105 ± 0.063 | -0.192 ± 0.064
LPS:CXCL8/IL-8 | -0.0245 ± 0.049 | -0.0285 ± 0.022 | 0.0315 ± 0.08 | 0.008 ± 0.034 | 0.021 ± 0.033 | 0.0375 ± 0.057 | 0.017 ± 0.0042 | 0.038 ± 0.013 | 0.047 ± 0.027 | 0.0265 ± 0.015 | 0.008 ± 0.014 | 0.0195 ± 0.0021 | -0.001 ± 0.016 | 0.0055 ± 0.012 | 0.0145 ± 0.0092 | -0.004 ± 0.034 | -0.002 ± 0.0099 | -0.0205 ± 0.026 | -0.003 ± 0.0028 | -0.0315 ± 0.0021
4H:CD106/VCAM-1 | -0.0145 ± 0.0035 | -0.0025 ± 0.0078 | -0.009 ± 0.0071 | 0.0045 ± 0.0021 | -0.0125 ± 0.0092 | -0.0525 ± 0.011 | 0.0225 ± 0.0021 | 0.036 ± 0.0085 | 0.0215 ± 0.026 | -0.0065 ± 0.0078 | -0.032 ± 0.013 | -0.0295 ± 0.011 | 0.012 ± 0.04 | 0.019 ± 0.028 | 0.02 ± 0.025 | -0.004 ± 0.025 | -0.008 ± 0.014 | 0.0015 ± 0.0021 | -0.043 ± 0.018 | -0.22 ± 0.02
BT:sTNF-alpha | 0.017 ± 0.11 | -0.0365 ± 0.033 | 0.0085 ± 0.043 | -0.016 ± 0.085 | -0.003 ± 0.0028 | -0.036 ± 0.095 | -0.033 ± 0.038 | -0.0095 ± 0.12 | 0.001 ± 0.13 | 0.102 ± 0.067 | 0.0055 ± 0.084 | 0.084 ± 0.069 | 0.0155 ± 0.043 | 0.023 ± 0.058 | 0.0675 ± 0.0092 | 0.11 ± 0.076 | 0.165 ± 0.0021 | 0.189 ± 0.026 | 0.0425 ± 0.061 | -0.146 ± 0.015
BF4T:Keratin 8/18 | 0.0035 ± 0.032 | 0.0035 ± 0.021 | 0.01 ± 0.024 | 0.0015 ± 0.022 | -0.0045 ± 0.005 | 0.003 ± 0.033 | 0.009 ± 0.028 | 0.013 ± 0.0057 | 0.017 ± 0.014 | 0.0085 ± 0.039 | 0.005 ± 0.028 | -0.0285 ± 0.028 | -0.013 ± 0.035 | -0.029 ± 0.014 | -0.0245 ± 0.039 | 0.002 ± 0.016 | -0.0025 ± 0.016 | -0.0335 ± 0.0078 | -0.013 ± 0.0099 | -0.036 ± 0.0071
BF4T:MMP-3 | 0.014 ± 0.044 | 0.004 ± 0.041 | 0.006 ± 0.042 | 0.018 ± 0.04 | 0.015 ± 0.047 | 0.049 ± 0.078 | 0.003 ± 0.0014 | 0.0165 ± 0.011 | 0.084 ± 0.02 | -0.006 ± 0.0014 | -0.031 ± 0.0014 | -0.018 ± 0.0085 | -0.009 ± 0.03 | -0.011 ± 0.0085 | 0.006 ± 0.0085 | -0.012 ± 0.0085 | -0.0055 ± 0.0035 | 0.02 ± 0.037 | -0.013 ± 0.04 | -0.008 ± 0.0057
BE3C:IL-1alpha | 0.0075 ± 0.021 | -0.006 ± 0.021 | 0.021 ± 0.0057 | 0.015 ± 0.017 | 0.024 ± 0.0042 | 0.045 ± 0.023 | -0.008 ± 0.024 | -0.019 ± 0.021 | -0.028 ± 0.011 | 0.01 ± 0.0085 | -0.003 ± 0.018 | 0.071 ± 0.061 | -0.003 ± 0.017 | -0.019 ± 0.0057 | -0.007 ± 0.011 | 0.0045 ± 0.011 | 0.0025 ± 0.0078 | 0.015 ± 0.013 | -0.041 ± 0.021 | -0.093 ± 0.0071
